Assays:
Type in all cases: cell-based
[1] = target: T1, human SVCT2 (SVCT2/SLC23A2) (Homo sapiens, UniProt Q9UGH3); test: inhibition of [[…]-14C]-urate uptake into transfected HEK293 cells, mock subtracted
T1 construct: full-length wild type, 650 aa, C-terminal EGFP tag (pEGFP-N1), transiently expressed in HEK293 cells

[2] = target: T2, mouse Svct2 (Svct2/Slc23a2) (Mus musculus, UniProt Q9EPR4); test: as above
T2 construct: full-length, 648 aa, C-terminal EGFP tag (pEGFP-N1), transiently expressed in HEK293 cells

[3] = target: T1, human SVCT2 (SVCT2/SLC23A2); test: inhibition of [[…]-14C]-ascorbate uptake into transfected HEK293 cells

T1 sequence (Q9UGH3 whole entry): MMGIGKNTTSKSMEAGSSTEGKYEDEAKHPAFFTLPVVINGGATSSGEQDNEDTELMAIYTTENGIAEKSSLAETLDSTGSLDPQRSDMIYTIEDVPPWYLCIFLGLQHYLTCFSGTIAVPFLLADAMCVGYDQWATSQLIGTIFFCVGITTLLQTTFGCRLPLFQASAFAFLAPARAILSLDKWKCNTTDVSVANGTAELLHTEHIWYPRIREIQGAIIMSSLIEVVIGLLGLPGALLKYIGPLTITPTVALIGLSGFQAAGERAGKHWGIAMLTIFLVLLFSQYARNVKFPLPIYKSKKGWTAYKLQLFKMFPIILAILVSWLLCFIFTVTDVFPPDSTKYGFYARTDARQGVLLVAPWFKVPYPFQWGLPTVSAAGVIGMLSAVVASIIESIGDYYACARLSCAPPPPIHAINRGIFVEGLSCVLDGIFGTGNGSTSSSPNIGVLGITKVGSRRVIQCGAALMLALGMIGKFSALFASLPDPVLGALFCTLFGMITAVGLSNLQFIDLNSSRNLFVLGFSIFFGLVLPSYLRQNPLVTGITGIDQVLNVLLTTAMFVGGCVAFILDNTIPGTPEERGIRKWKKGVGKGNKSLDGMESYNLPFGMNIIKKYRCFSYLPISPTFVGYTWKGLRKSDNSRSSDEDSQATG
T2 sequence (Q9EPR4 whole entry): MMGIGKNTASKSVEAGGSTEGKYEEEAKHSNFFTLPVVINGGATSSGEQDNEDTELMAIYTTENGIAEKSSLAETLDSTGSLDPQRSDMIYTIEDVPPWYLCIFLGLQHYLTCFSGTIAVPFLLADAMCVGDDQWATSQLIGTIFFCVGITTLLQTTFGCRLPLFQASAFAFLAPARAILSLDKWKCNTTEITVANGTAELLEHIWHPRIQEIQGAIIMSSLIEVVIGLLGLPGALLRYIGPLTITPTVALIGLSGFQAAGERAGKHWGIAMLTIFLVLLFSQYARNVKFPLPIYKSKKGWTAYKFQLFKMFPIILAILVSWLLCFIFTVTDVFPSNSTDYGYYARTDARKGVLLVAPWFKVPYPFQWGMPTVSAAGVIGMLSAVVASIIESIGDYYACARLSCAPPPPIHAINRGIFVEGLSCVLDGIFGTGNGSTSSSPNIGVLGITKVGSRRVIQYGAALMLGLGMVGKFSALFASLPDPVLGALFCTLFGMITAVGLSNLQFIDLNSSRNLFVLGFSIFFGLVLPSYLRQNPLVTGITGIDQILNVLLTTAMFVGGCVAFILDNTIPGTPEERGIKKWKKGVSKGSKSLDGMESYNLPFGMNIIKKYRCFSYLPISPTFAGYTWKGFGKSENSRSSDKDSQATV

| IC50 [1] | IC50 [2] | inhibition at 500 µM [3] | SMILES |
| --- | --- | --- | --- |
| 36.6 µM | 30.3 µM | – | O=C1O[C@H]([C@@H](O)CO)C(O)=C1O [ascorbate] |
| – | – | ~20% | O=c1[nH]c(=O)c2[nH]c(=O)[nH]c2[nH]1 [urate] |
